Reference: ChEMBL document CHEMBL3885881, “DrugMatrix”

Organism: Rattus norvegicus
Test: DrugMatrix - Regimen: Daily Repeat
Assay type: toxicity, organism-based, Sprague-Dawley
Parameters: regimen Daily Repeat, gender Male, age 6-8 weeks
Conditions: in vivo, po, route oral GAVAGE, […]; for ABSOLUTE BASOPHIL / ABSOLUTE EOSINOPHIL / ABSOLUTE LYMPHOCYTE / ABSOLUTE MONOCYTE / ABSOLUTE SEGMENTED NEUTROPHIL / BASOPHIL / EOSINOPHIL / ERYTHROCYTE COUNT / HEMATOCRIT / HEMOGLOBIN / LEUKOCYTE COUNT / LYMPHOCYTE / MEAN CORPUSCULAR HEMOGLOBIN / MEAN CORPUSCULAR HEMOGLOBIN CONCENTRATION / MEAN CORPUSCULAR VOLUME / MONOCYTE / NEUTROPHIL / NUCLEATED RED BLOOD CELLS / PLATELET COUNT: tissue Blood; for ALANINE AMINOTRANSFERASE / ALBUMIN / ALKALINE PHOSPHATASE / ASPARTATE AMINOTRANSFERASE / BLOOD UREA NITROGEN / CARBON DIOXIDE / CHLORIDE / CHOLESTEROL / CREATINE PHOSPHOKINASE / CREATININE / GLUCOSE / LACTATE DEHYDROGENASE / LIPASE / PHOSPHORUS / POTASSIUM / SODIUM / TOTAL BILIRUBIN / TOTAL PROTEIN / URIC ACID: tissue Plasma
[1] = 79 mg/kg, 72 h, dose level Low, time 3 day
[2] = 79 mg/kg, 120 h, dose level Low, time 5 day
[3] = 2500 mg/kg, 72 h, dose level High, time 3 day
[4] = 2500 mg/kg, 120 h, dose level High, time 5 day

What does the source list for `COc1ccc2cc(CCC(C)=O)ccc2c1` [NABUMETONE]?
ABSOLUTE BASOPHIL [1]: 0 CELLS/uL; ABSOLUTE EOSINOPHIL [1]: 0 CELLS/uL; ABSOLUTE LYMPHOCYTE [1]: 14572 CELLS/uL; ABSOLUTE MONOCYTE [1]: 0 CELLS/uL; ABSOLUTE SEGMENTED NEUTROPHIL [1]: 1228 CELLS/uL; BASOPHIL [1]: 0%; EOSINOPHIL [1]: 0%; ERYTHROCYTE COUNT [1]: 5.17 x10E6/uL; HEMATOCRIT [1]: 32.13%; HEMOGLOBIN [1]: 12.87 G/DL; LEUKOCYTE COUNT [1]: 15.8 x10E3/uL; LYMPHOCYTE [1]: 92.33%; MEAN CORPUSCULAR HEMOGLOBIN [1]: 24.87 pg; MEAN CORPUSCULAR HEMOGLOBIN CONCENTRATION [1]: 40.07 G/DL; MEAN CORPUSCULAR VOLUME [1]: 62.1 fL; MONOCYTE [1]: 0%; NEUTROPHIL [1]: 7.67%; NUCLEATED RED BLOOD CELLS [1]: 0 /100WBC; PLATELET COUNT [1]: 1308.67 x10E3/uL; ALANINE AMINOTRANSFERASE [1]: 72.33 u/L; ALBUMIN [1]: 4 G/DL; ALKALINE PHOSPHATASE [1]: 371 u/L; ASPARTATE AMINOTRANSFERASE [1]: 79.33 u/L; BLOOD UREA NITROGEN [1]: 15.67 mg/dL; CARBON DIOXIDE [1]: 31 mmol/L; CHLORIDE [1]: 103 MEQ/L; CHOLESTEROL [1]: 83.67 mg/dL; CREATINE PHOSPHOKINASE [1]: 226.33 u/L; CREATININE [1]: 0.12 mg/dL; GLUCOSE [1]: 150.67 mg/dL; LACTATE DEHYDROGENASE [1]: 93.33 u/L; LIPASE [1]: 10 u/L; PHOSPHORUS [1]: 12.3 mg/dL; POTASSIUM [1]: 6.52 MEQ/L; SODIUM [1]: 144.77 MEQ/L; TOTAL BILIRUBIN [1]: 0.13 mg/dL; TOTAL PROTEIN [1]: 5.33 G/DL; URIC ACID [1]: 1.73 mg/dL; ABSOLUTE BASOPHIL [2]: 0 CELLS/uL; ABSOLUTE EOSINOPHIL [2]: 33.67 CELLS/uL; ABSOLUTE LYMPHOCYTE [2]: 9495 CELLS/uL; ABSOLUTE MONOCYTE [2]: 148 CELLS/uL; ABSOLUTE SEGMENTED NEUTROPHIL [2]: 1090 CELLS/uL; BASOPHIL [2]: 0%; EOSINOPHIL [2]: 0.33%; ERYTHROCYTE COUNT [2]: 5.45 x10E6/uL; HEMATOCRIT [2]: 33.1%; HEMOGLOBIN [2]: 13.23 G/DL; LEUKOCYTE COUNT [2]: 10.77 x10E3/uL; LYMPHOCYTE [2]: 88.33%; MEAN CORPUSCULAR HEMOGLOBIN [2]: 24.3 pg; MEAN CORPUSCULAR HEMOGLOBIN CONCENTRATION [2]: 39.97 G/DL; MEAN CORPUSCULAR VOLUME [2]: 60.83 fL; MONOCYTE [2]: 1.33%; NEUTROPHIL [2]: 10%; NUCLEATED RED BLOOD CELLS [2]: 0 /100WBC; PLATELET COUNT [2]: 1115 x10E3/uL; ALANINE AMINOTRANSFERASE [2]: 69.33 u/L; ALBUMIN [2]: 4.1 G/DL; ALKALINE PHOSPHATASE [2]: 332 u/L; ASPARTATE AMINOTRANSFERASE [2]: 95.67 u/L; BLOOD UREA NITROGEN [2]: 12.33 mg/dL; CARBON DIOXIDE [2]: 33 mmol/L; CHLORIDE [2]: 103 MEQ/L; CHOLESTEROL [2]: 61.33 mg/dL; CREATINE PHOSPHOKINASE [2]: 321 u/L; CREATININE [2]: 0.15 mg/dL; GLUCOSE [2]: 173.33 mg/dL; LACTATE DEHYDROGENASE [2]: 214.67 u/L; LIPASE [2]: 9.67 u/L; PHOSPHORUS [2]: 11.03 mg/dL; POTASSIUM [2]: 5.83 MEQ/L; SODIUM [2]: 145.17 MEQ/L; TOTAL BILIRUBIN [2]: 0.13 mg/dL; TOTAL PROTEIN [2]: 5.53 G/DL; URIC ACID [2]: 1.13 mg/dL; ABSOLUTE BASOPHIL [3]: 0 CELLS/uL; ABSOLUTE EOSINOPHIL [3]: 0 CELLS/uL; ABSOLUTE LYMPHOCYTE [3]: 9646 CELLS/uL; ABSOLUTE MONOCYTE [3]: 275 CELLS/uL; ABSOLUTE SEGMENTED NEUTROPHIL [3]: 3829 CELLS/uL; BASOPHIL [3]: 0%; EOSINOPHIL [3]: 0%; ERYTHROCYTE COUNT [3]: 4.08 x10E6/uL; HEMATOCRIT [3]: 26.8%; HEMOGLOBIN [3]: 10.45 G/DL; LEUKOCYTE COUNT [3]: 13.75 x10E3/uL; LYMPHOCYTE [3]: 70%; MEAN CORPUSCULAR HEMOGLOBIN [3]: 25.55 pg; MEAN CORPUSCULAR HEMOGLOBIN CONCENTRATION [3]: 38.9 G/DL; MEAN CORPUSCULAR VOLUME [3]: 65.7 fL; MONOCYTE [3]: 2%; NEUTROPHIL [3]: 28%; NUCLEATED RED BLOOD CELLS [3]: 0 /100WBC; PLATELET COUNT [3]: 873.5 x10E3/uL; ALANINE AMINOTRANSFERASE [3]: 41 u/L; ALBUMIN [3]: 2.7 G/DL; ALKALINE PHOSPHATASE [3]: 286.5 u/L; ASPARTATE AMINOTRANSFERASE [3]: 125 u/L; BLOOD UREA NITROGEN [3]: 15.5 mg/dL; CARBON DIOXIDE [3]: 28.5 mmol/L; CHLORIDE [3]: 94 MEQ/L; CHOLESTEROL [3]: 75 mg/dL; CREATINE PHOSPHOKINASE [3]: 410 u/L; CREATININE [3]: 0.17 mg/dL; GLUCOSE [3]: 134 mg/dL; LACTATE DEHYDROGENASE [3]: 144 u/L; LIPASE [3]: 9 u/L; PHOSPHORUS [3]: 12 mg/dL; POTASSIUM [3]: 6.89 MEQ/L; SODIUM [3]: 136.5 MEQ/L; TOTAL BILIRUBIN [3]: 0.1 mg/dL; TOTAL PROTEIN [3]: 4.95 G/DL; URIC ACID [3]: 1.35 mg/dL; ABSOLUTE BASOPHIL [4]: 0 CELLS/uL; ABSOLUTE EOSINOPHIL [4]: 0 CELLS/uL; ABSOLUTE LYMPHOCYTE [4]: 3068 CELLS/uL; ABSOLUTE MONOCYTE [4]: 0 CELLS/uL; ABSOLUTE SEGMENTED NEUTROPHIL [4]: 8732 CELLS/uL; BASOPHIL [4]: 0%; EOSINOPHIL [4]: 0%; ERYTHROCYTE COUNT [4]: 2.58 x10E6/uL; HEMATOCRIT [4]: 15.9%; HEMOGLOBIN [4]: 6.6 G/DL; LEUKOCYTE COUNT [4]: 11.8 x10E3/uL; LYMPHOCYTE [4]: 26%; MEAN CORPUSCULAR HEMOGLOBIN [4]: 25.6 pg; MEAN CORPUSCULAR HEMOGLOBIN CONCENTRATION [4]: 41.5 G/DL; MEAN CORPUSCULAR VOLUME [4]: 61.8 fL; MONOCYTE [4]: 0%; NEUTROPHIL [4]: 74%; NUCLEATED RED BLOOD CELLS [4]: 0 /100WBC; PLATELET COUNT [4]: 1731 x10E3/uL; ALANINE AMINOTRANSFERASE [4]: 34 u/L; ALBUMIN [4]: 2.4 G/DL; ALKALINE PHOSPHATASE [4]: 326 u/L; ASPARTATE AMINOTRANSFERASE [4]: 66 u/L; BLOOD UREA NITROGEN [4]: 17 mg/dL; CARBON DIOXIDE [4]: 28 mmol/L; CHLORIDE [4]: 97 MEQ/L; CHOLESTEROL [4]: 55 mg/dL; CREATINE PHOSPHOKINASE [4]: 158 u/L; CREATININE [4]: 0.13 mg/dL; GLUCOSE [4]: 102 mg/dL; LACTATE DEHYDROGENASE [4]: 80 u/L; LIPASE [4]: 9 u/L; PHOSPHORUS [4]: 7.6 mg/dL; POTASSIUM [4]: 6.79 MEQ/L; SODIUM [4]: 138 MEQ/L; TOTAL BILIRUBIN [4]: 0.2 mg/dL; TOTAL PROTEIN [4]: 4.7 G/DL; URIC ACID [4]: 0.9 mg/dL
